Laboratory results reported in US20110064679A1 (priority 2008, published 2011).
Where two headings read alike, the source gives them in different places.

How the values were obtained:
[1] = tested on: Mouse; conditions: cited from earlier work
[2] = Acidizing function: pH of agar; format: physicochemical
Experimental: (§1) This dropped the pH of the agar from 6.0 to 5.3. The toxicity of the acidizing agent was tested by examining the lifespan of Caenorhabditis elegans.

[3] = tested on: C57BL/6 mice; conditions: for Average increase in lifespan compared to the control group: daily dosage of 380 mg/kg, male C57BL/6 mice started at 9 months
Experimental: (§2) This product was added to the normal diet and consumed over a period of eight hours. Food was selected as the vehicle of choice due to solubility concerns of the Oxaloacetate and because of the anticipated use of the product.
C57BL/6 mice were used in this test. These mice were used because they are often used for longevity studies.
Male mice were used in the Chronic study because of their linear increase in weight with time. Females are less linear in their increase.
Each animal was housed separately and the test was started with older animals (9 months of age) as human use is primarily anticipated to be in the older populations. The test was continued until all animals died.
25 Male C57BL/6 mice with the same day of birth (plus or minus 1 week) were selected for the test. The mice were evaluated for fasting glucose levels and weight, and broken into three similar groups based on equalization of weight and fasting glucose levels.
Each animal was caged separately in a low stimulus environment and fed one of three diets. The first group was the Control Group, and it was fed an ad Librium balanced diet of mouse food pellets. The second group was calorie restricted 40% from the control group, as established by baseline feeding. […] At the end of 21 weeks, 3 mice from each group were sacrificed and their livers exhumed for genomic testing.
The remaining groups of mice were allowed to live the rest of their lives on the individualized diets for humane reasons. The study has been ongoing for 18 months.
The test compound laced food was placed in the cage with the animal at the end of each day. Water was provided freely.

[4] = tested on: Mus musculus; conditions: in vivo
Experimental: (§3) The toxicity of the preservative was tested by examining the lifespan of Caenorhabditis elegans, Drosophila melanogaster, and Mus musculus.

[5] = tested on: C57BL/6 mice; experiment: in vivo
Experimental: as §2
(§4) C57BL/6 mice were used in this test. These mice were used because they are often used for longevity studies. Additionally, there is substantial information on Chronic exposure of the test compound with this breed of mice.
(§5) Male mice were used in the Acute study because male mice were used in the Chronic exposure study. Each animal was housed separately and was 2 months of age.
(§6) 5,000 mg/kg doses of the test compound were added to food, as it is anticipated that this product will be taken with a meal. Specifically,
(§7) Each animal was caged separately. Prior to feeding, the bedding in the animal cage was changed. Food was prepared by dissolving 100 mg of the test compound with each ml of distilled water, then rolling the appropriate amount of food pellets in the amount of water until the waster was absorbed to obtain the proper dosage per animal. The test compound laced food was placed in the cage with the animal at the end of the day. […] Water was provided freely.
(§8) After dosing the animals with the test compound, the animals were returned to a standard Ad Librium diet of food pellets and water.

[6] = in vivo; conditions: male, C57BL/6, mouse, in vivo, po
Experimental: as §2, §4, §5, §6, §7, §8

[7] = tested on: Caenorhabditis elegans; experiment: Lifespan toxicity test of preservative / acidizing agent; format: in vivo
Experimental: as §3, §1

[8] = tested on: microbial growth; experiment: Preservative function: microbial growth in agar and cornmeal paste; conditions: for microbial growth compared to control preparations: 8 mM in Nematode Growth Agar and cornmeal paste, monitored with a microscope
Excerpt: These compositions where monitored over time with a microscope, and compared to control preparations.

[9] = tested on: genomic expression in the livers; experiment: Genomic expression in the livers, Affymatrix Mouse Genome 430 2.0 Array; format: in vivo; conditions: for Percentage of genes moving in same direction as Calorie Restricted Mice (correlation): 1.7 fold expression cut-off
Excerpt: In the calorie restricted mice, 1,763 genes changed in expression as compared to the control group. […] Comparison of common genes changed in expression between the Calorie Restricted group and the Oxaloacetic group indicated 363 genes in common.
If a 1.7 fold expression cut-off is used to eliminate false positives (commonly used in the literature), the correlation between the two groups becomes 100% for the genes in common, which drops down to 36 highly expressed or repressed genes. A table of the genes affected is seen in Table 1.

[10] = tested on: Drosophila melanogaster; experiment: Lifespan toxicity test of preservative; format: in vivo
Experimental: as §3

SMILES: CC(O)C(=O)O (centres unmarked) [Lactic Acid]
- LD50 ([1]; Mouse data, injected, subcutaneous injection): 4,500 mg/kg

SMILES: O=C(O)CC(O)C(=O)O (centres unmarked) [Malic Acid]
- LD50 ([1]; mouse, in vivo, po): 1,600 mg/kg

SMILES: O=C(O)CC(=O)C(=O)O [Oxaloacetic Acid]
- smallest concentration producing a decrease in pH [2]: 1 mM
- pH of the agar after addition ([2]; 8 mM in Nematode Growth Agar, dropped from 6.0): 5.3
- Increase of residual lifespan over the control group ([3]; 0.4% in food, 380 mg/kg daily, started at age of 9 months): 40%
- Average increase in lifespan compared to the control group ([3]; 0.4% in food): > 20%
- Average increase in lifespan compared to the control group ([3]; 0.4% in food, 380 mg/kg): 25%
- Chronic toxicity compared to the control group ([3]; mouse, in vivo, 380 mg/kg): negative toxicity
- lifespan (toxicity of the preservative) [4]: no decrease in lifespan
- Survival at limitation dose ([5]; 5,000 mg/kg with food, five male C57BL/6 mice): All animals survived
- LD50 ([5]; male, C57BL/6, mouse, in vivo, po, 8 h): > 5,000 mg/kg
- LD50 at 8 h [6]: > 5000 mg/kg
- lifespan (toxicity of the preservative) [7]: no decrease in lifespan
- lifespan (toxicity of the acidizing agent) ([7]; 8 mM in agar): no decrease in lifespan
- microbial growth compared to control preparations [8]: control preparation had more microbial growth
- smallest concentration producing a reduction in microbial activity ([8]; even when the salt is used): 8 mM
- Genes Moving in Opposite Direction as Calorie Restricted Mice ([9]; 1.7 Fold Cut Off): 0
- Genes Moving in Same Direction as Calorie Restricted Mice ([9]; 1.7 Fold Cut Off): 36
- Percentage of genes moving in same direction as Calorie Restricted Mice (correlation) [9]: 100%
- Percentage of genes moving in same direction as Calorie Restricted Mice (correlation) ([9]; listed as Oxaloacetate): 100.0%
- Directional correlation of genomic expression with the calorie restricted group ([9]; 363 genes in common, no cut-off): 98.1%
- OX to C Change ([9]; gene 9130019P20Rik, Affx No. 39136, mouse liver vs control): 1
- Genes changed in expression in common with the Calorie Restricted group ([9]; liver, after 21 weeks): 363
- Number of genes changed in expression as compared with the control group ([9]; liver, after 21 weeks on increasing diet): 765
- lifespan (toxicity of the preservative) [10]: no decrease in lifespan

SMILES: O=C([O-])CC(=O)C(=O)O.[Na+] [sodium oxaloacetate salt, sodium oxaloacetate]
- microbial growth compared to control preparations [8]: control preparations had more microbial growth
